Patent US20180243190A1, “ACTIVATORS OF NRF2-DEPENDENT PHOTOPROTECTION AND RELATED USES THEREOF” (THE ARIZONA BOARD OF REGENTS ON BEHALF OF THE UNIVERSITY OF …, priority 2015, published 2018)

Columns and labels:
[1] = molecular target: T1, KEAP1-C151S (Homo sapiens, UniProt Q14145, C151S); type: cell-based; settings: SF 5 μM, As 5 μM, bixin 40 μM; 16 h
T1 construct: expressed in transfected cells; host or cells: HaCaT human keratinocytes
Description: (§1) Since it has been shown previously that NRF2 activation by canonical inducers (including SF and tBHQ) depends on C (Cys)-151, a critical cysteine residue in KEAP1, the mechanistic involvement of KEAP1-C151 bixin-based NRF2 activation was examined. HaCaT cells were cotransfected with expression vectors for either KEAP1 wild type (KEAP1-WT) or a mutant KEAP1 (KEAP1-C151S; Cys-151 mutated to serine) along with ARE-firefly luciferase and Renilla luciferase reporters to assess NRF2 transcriptional activity (FIG. 3G). After exposure to SF (5 μM), As (sodium arsenite; 5 μM), or bixin (40 μM; all 16 h), NRF2 transcriptional activity was enhanced by all treatments in KEAP1-WT cells, whereas NRF2 activation by SF or bixin was abolished in KEAP1-C151S cells.
(§2) Transfection of cDNA was performed using Lipofectamine 3000 (Invitrogen) according to the manufacturer's instructions. Activation of NRF2 transcriptional activity was performed as previously published. Briefly, HaCaT cells were cotransfected with expression vectors for either KEAP1 wild type (KEAP1-WT) or KEAP1 with a mutation that generates a protein that contains a serine residue instead of a cysteine (KEAP1-C151S), along with NQO1-ARE firefly luciferase and Renilla luciferase reporters. At 24 h post-transfection, cells were left untreated or treated with SF (5 μM), As (5 μM), or bixin (40 μM) for 16 h. The cells were then lysed for analysis of the reporter gene activity using the Promega dual-luciferase reporter gene assay system.

[2] = molecular target: T2, KEAP1 wild type (KEAP1-WT) (Homo sapiens, UniProt Q14145); type: cell-based; settings: SF 5 μM, As 5 μM, bixin 40 μM; 16 h
T2 construct: expressed in transfected cells; host or cells: HaCaT human keratinocytes
Description: as §1, §2

[3] = system: NRF2; assay: Cell-based NRF2 ubiquitination assay; set-up: species or system human; settings: HaCaT, bixin 40 μM or SF 5 μM with MG132 10 μM, 4 h
Experimental: In order to test if bixin-based NRF2 activation occurs through inhibition of KEAP1-mediated ubiquitination, a cell-based ubiquitination assay was performed in HaCaT cells cotransfected with expression vectors for NRF2 and HA-tagged ubiquitin (HA-Ub) (FIG. 3F). To this end, cells were either exposed to bixin (40 μM) or sulforaphane (SF; 5 μM, positive control) or left untreated, combined with proteasome inhibition (MG132; 10 μM, 4 h).
Experiments were performed according to previously published procedures. Cells were harvested in sample buffer (50 mM Tris-HCl [pH 6.8], 2% sodium dodecyl sulfate (SDS), 10% glycerol, 100 mM dithiothreitol (DTT), and 0.1% bromophenol blue), boiled and sonicated. Total cell lysates were resolved by SDS-PAGE and subjected to immunoblot analyses with the indicated antibodies. For the ubiquitination assay, cells were cotransfected with expression vectors for NRF2 and HA-tagged ubiquitin (HA-Ub). Cells were left untreated or treated with either 5 μM sulforaphane (SF) or 40 μM bixin along with 10 μM MG132 for 4 h. Cells were harvested in buffer containing 2% SDS, 150 mM NaCl, 10 mM Tris-HCl (pH 8.0), and 1 mM DTT and boiled immediately. […] The relative intensity of the bands was quantified using the ChemiDoc CRS gel documentation system and Quantity One software (BioRad).

[4] = system: HaCaT keratinocytes; set-up: cytoprotection against 1O2-induced oxidative stress: dose or concentration left out as unconfirmed; settings: HaCaT
Experimental: Photodynamic induction of intracellular oxidative stress and its suppression by bixin pretreatment was analyzed by flow cytometry using 2′,7′-dichlorodihydrofluorescein diacetate (DCFH-DA) as a sensitive non-fluorescent precursor dye according to a published standard procedure [14]. HaCaT keratinocytes were pretreated with bixin (1 or 24 h) and then exposed to singlet oxygen generated by dye-sensitization as described earlier [14, 44]. In brief, toluidine blue 0 (TB) photosensitization was achieved using a ‘Sylvania 15 W Cool White’ light tube delivering visible light at an irradiance of 4.29 mW/cm^2. The irradiance in the visible region (400-700 nm) was determined using a spectroradiometer, Model 754 from Optronic Laboratories (Orlando, Fla.). Cells received visible radiation at a distance of 50 mm from the source through the polystyrene lids of cell culture dishes. For ^1O2 exposure, cells were washed with PBS and immediately exposed to the combined action of visible light (0.3 J/cm^2) and TB (3.3 μM) in PBS. Following 5 min incubation in the dark after irradiation, cells were washed with PBS. Cells were then incubated for 60 min in the dark (37° C., 5% CO2) with culture medium containing DCFH-DA (5 μg/mL final concentration). Cells were then washed with PBS, harvested by trypsinization, resuspended in 300 μl PBS, and analyzed by flow cytometry.

T1 sequence (Q14145 whole entry C151S): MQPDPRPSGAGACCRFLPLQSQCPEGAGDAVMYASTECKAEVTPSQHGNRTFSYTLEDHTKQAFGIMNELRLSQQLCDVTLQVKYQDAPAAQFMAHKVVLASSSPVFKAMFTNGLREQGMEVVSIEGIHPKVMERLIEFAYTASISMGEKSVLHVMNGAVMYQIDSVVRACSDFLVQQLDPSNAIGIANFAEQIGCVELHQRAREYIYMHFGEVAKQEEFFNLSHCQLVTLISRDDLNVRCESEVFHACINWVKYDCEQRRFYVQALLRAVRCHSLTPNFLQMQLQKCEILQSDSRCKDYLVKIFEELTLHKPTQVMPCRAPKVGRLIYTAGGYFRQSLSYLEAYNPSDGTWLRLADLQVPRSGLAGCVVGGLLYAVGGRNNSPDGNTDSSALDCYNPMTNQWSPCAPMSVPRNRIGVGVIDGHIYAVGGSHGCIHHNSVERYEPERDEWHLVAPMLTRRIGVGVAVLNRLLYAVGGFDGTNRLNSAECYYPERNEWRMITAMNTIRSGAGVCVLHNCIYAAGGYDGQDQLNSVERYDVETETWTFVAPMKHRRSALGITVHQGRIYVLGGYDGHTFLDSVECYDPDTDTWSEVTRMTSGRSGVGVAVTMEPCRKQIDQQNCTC
T2 sequence (Q14145 whole entry, species assumed): as the sequence (Q14145 whole entry C151S) above, with S151C counted along it

SMILES | NRF2 activation in KEAP1-C151S cells [1] | NRF2 transcriptional activity in KEAP1-WT cells [2] | NRF2-ubiquitination versus untreated control [3] | cytoprotection against 1O2-induced oxidative stress [4]
C[S+]([O-])CCCCN=C=S (stereo not drawn) [SF, sulforaphane] | abolished | enhanced | inhibitory effects | –
[N-]=[N+]=[N-].[Na+] [NaN3, reference compound] | – | – | – | active only if present during visible light-driven dye sensitization
O=[As]O [As, sodium arsenite] | equally effective | enhanced | – | –
